Bridge positions count the residues as written; N and C are the ends. Square brackets hold non-standard residues; d marks the D form. Peptide text beside a SMILES is read from it. Hyp = O=C(O)[C@@H]1C[C@@H](O)CN1

The target in the experiment is T1, hAMY3 receptor (Homo sapiens, UniProt O60896+P30988).
T1 sequence (P30988 25-474): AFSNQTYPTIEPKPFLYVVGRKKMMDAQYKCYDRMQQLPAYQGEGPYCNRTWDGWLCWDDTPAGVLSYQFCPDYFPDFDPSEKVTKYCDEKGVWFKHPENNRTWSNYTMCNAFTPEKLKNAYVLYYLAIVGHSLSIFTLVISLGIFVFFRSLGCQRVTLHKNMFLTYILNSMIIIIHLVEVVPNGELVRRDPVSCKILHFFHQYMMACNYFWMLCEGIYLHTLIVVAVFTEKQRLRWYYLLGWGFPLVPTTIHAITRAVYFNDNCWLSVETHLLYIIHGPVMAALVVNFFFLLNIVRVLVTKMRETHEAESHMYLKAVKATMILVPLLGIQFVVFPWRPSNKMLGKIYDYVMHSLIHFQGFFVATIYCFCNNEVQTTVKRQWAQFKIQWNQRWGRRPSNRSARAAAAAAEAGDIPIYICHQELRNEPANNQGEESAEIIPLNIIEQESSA
T1 sequence (O60896 24-148 partner): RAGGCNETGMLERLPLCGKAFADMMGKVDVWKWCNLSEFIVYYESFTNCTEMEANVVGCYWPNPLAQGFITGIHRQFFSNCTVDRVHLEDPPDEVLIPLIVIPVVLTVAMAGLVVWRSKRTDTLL
The experiment is described as follows: cAMP assay for in vitro receptor activation, hAMY3-R. It is filed as cell-based. To be noted: cAMP assay, hAMY3 receptor; read-out: hAMY3R EC50. In outline:
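Stable hAMY3 cells; DPBS + 0.05% casein + 0.5 mM IBMX; graded compound doses, 30 min, RT; cAMP via HTRF Gs kit, TR-FRET read at 1 h.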
In general terms: cAMP levels reflect the balance of adenylyl cyclase and phosphodiesterase activity.
By EC50 is commonly meant the concentration needed to bring the measured effect to its halfway point. With `CC[C@H](C)[C@H](NC(=O)[C@H](C)NC(=O)CNC(=O)[C@H](CC(=O)O)NC(=O)[C@H](CCCCN)NC(=O)[C@H](CC(=O)O)NC(=O)[C@@H](NC(=O)[C@H](Cc1ccccc1)NC(=O)[C@H](CCC(N)=O)NC(=O)[C@H](Cc1ccc(O)cc1)NC(=O)[C@H](CC(C)C)NC(=O)[C@H](Cc1ccccc1)NC(=O)[C@H](Cc1c[nH]cn1)NC(=O)[C@H](C)NC(=O)[C@H](CC(C)C)NC(=O)[C@H](CCCNC(=N)N)NC(=O)[C@H](CCC(N)=O)NC(=O)[C@@H](NC(=O)[C@@H](NC(=O)[C@@H]1CSSC[C@H](NC(=O)CN)C(=O)N[C@@H](CCCNC(=N)N)C(=O)N[C@@H](Cc2ccccc2)C(=O)NCC(=O)N[C@@H]([C@@H](C)O)C(=O)N1)[C@@H](C)O)C(C)C)[C@@H](C)O)C(=O)N[C@@H](C)C(=O)N1CCC[C@H]1C(=O)N[C@@H](CCCNC(=N)N)C(=O)N[C@H](C(=O)N[C@@H](CCCCN)C(=O)N[C@H](C(=O)NCC(=O)N[C@@H](CO)C(=O)N[C@@H](CCC(N)=O)C(=O)NCC(=O)N[C@@H](Cc1ccc(O)cc1)C(N)=O)[C@@H](C)CC)[C@@H](C)O` [compound 123] (H-GCRFGTCTVQRLAHFLYQFTDKDGAIAPRTKIGSQGY-NH2; disulfide 2-7; N-terminus assumed), the EC50 was 0.027 nM.
Then `CC[C@H](C)[C@H](NC(=O)[C@H](CC(N)=O)NC(=O)[C@@H](NC(=O)[C@H](CCCNC(=N)N)NC(=O)[C@@H]1CCCN1C(=O)[C@H](C)NC(=O)[C@@H](NC(=O)[C@H](CC(N)=O)NC(=O)[C@H](CC(=O)O)NC(=O)[C@H](CCCCN)NC(=O)[C@H](CC(=O)O)NC(=O)[C@H](CCCCN)NC(=O)[C@H](CC(=O)O)NC(=O)[C@@H](NC(=O)[C@H](Cc1ccccc1)NC(=O)[C@H](CCC(N)=O)NC(=O)[C@H](Cc1ccc(O)cc1)NC(=O)[C@@H](NC(=O)[C@H](CCC(N)=O)NC(=O)[C@H](Cc1c[nH]cn1)NC(=O)[C@H](C)NC(=O)[C@H](CC(C)C)NC(=O)[C@H](CCCNC(=N)N)NC(=O)[C@H](CCC(N)=O)NC(=O)[C@@H](NC(=O)[C@@H](NC(=O)[C@@H]1CSSC[C@H](NC(=O)CN)C(=O)N[C@@H](CCCNC(=N)N)C(=O)N[C@@H]([C@@H](C)O)C(=O)NCC(=O)N[C@@H]([C@@H](C)O)C(=O)N1)[C@@H](C)O)C(C)C)[C@@H](C)CC)[C@@H](C)O)C(C)C)[C@@H](C)O)C(=O)NCC(=O)N1CCC[C@H]1C(=O)N[C@@H](CC(N)=O)C(=O)NCC(=O)N[C@@H](Cc1ccc(O)cc1)C(N)=O` [compound 142] (H-GCRTGTCTVQRLAHQIYQFTDKDKDNVAPRTNIGPNGY-NH2; disulfide 2-7; N-terminus assumed), with 0.036 nM; and `CC[C@H](C)[C@H](NC(=O)[C@H](CC(N)=O)NC(=O)[C@H](CO)NC(=O)[C@H](CCCNC(=N)N)NC(=O)[C@@H]1CCCN1C(=O)[C@H](C)NC(=O)[C@@H](NC(=O)[C@H](CC(N)=O)NC(=O)[C@H](CC(=O)O)NC(=O)[C@H](CCCCN)NC(=O)[C@H](CC(=O)O)NC(=O)[C@H](CCCCN)NC(=O)[C@H](CC(=O)O)NC(=O)[C@@H](NC(=O)[C@H](Cc1ccccc1)NC(=O)[C@H](CCC(N)=O)NC(=O)[C@H](Cc1ccc(O)cc1)NC(=O)[C@@H](NC(=O)[C@H](CCC(N)=O)NC(=O)[C@H](Cc1c[nH]cn1)NC(=O)[C@H](C)NC(=O)[C@H](CC(C)C)NC(=O)[C@H](CCCNC(=N)N)NC(=O)[C@H](CCC(N)=O)NC(=O)[C@@H](NC(=O)[C@@H](NC(=O)[C@@H]1CSSC[C@H](NC(=O)CN)C(=O)N[C@@H](CCCNC(=N)N)C(=O)N[C@@H]([C@@H](C)O)C(=O)NCC(=O)N[C@@H]([C@@H](C)O)C(=O)N1)[C@@H](C)O)C(C)C)[C@@H](C)CC)[C@@H](C)O)C(C)C)C(=O)NCC(=O)N1CCC[C@H]1C(=O)N[C@@H](CC(N)=O)C(=O)NCC(=O)N1C[C@H](O)C[C@H]1C(N)=O` [compound 151] (H-GCRTGTCTVQRLAHQIYQFTDKDKDNVAPRSNIGPNG[Hyp]-NH2; disulfide 2-7; N-terminus assumed), with 0.041 nM.
In the case of `CC[C@H](C)[C@H](NC(=O)[C@H](CCCCN)NC(=O)[C@H](CO)NC(=O)[C@H](CCCNC(=N)N)NC(=O)[C@@H]1CCCN1C(=O)[C@H](C)NC(=O)[C@@H](NC(=O)[C@H](CC(N)=O)NC(=O)[C@H](CC(=O)O)NC(=O)[C@H](CCCCN)NC(=O)[C@H](CC(=O)O)NC(=O)[C@H](CCCCN)NC(=O)[C@H](CC(=O)O)NC(=O)[C@@H](NC(=O)[C@H](Cc1ccccc1)NC(=O)[C@H](CCC(N)=O)NC(=O)[C@H](Cc1ccc(O)cc1)NC(=O)[C@@H](NC(=O)[C@H](CCC(N)=O)NC(=O)[C@H](Cc1c[nH]cn1)NC(=O)[C@H](C)NC(=O)[C@H](CC(C)C)NC(=O)[C@H](CCCNC(=N)N)NC(=O)[C@H](CCC(N)=O)NC(=O)[C@@H](NC(=O)[C@@H](NC(=O)[C@@H]1CSSC[C@H](NC(=O)CN)C(=O)N[C@@H](CCCNC(=N)N)C(=O)N[C@@H]([C@@H](C)O)C(=O)NCC(=O)N[C@@H]([C@@H](C)O)C(=O)N1)[C@@H](C)O)C(C)C)[C@@H](C)CC)[C@@H](C)O)C(C)C)C(=O)NCC(=O)N1CCC[C@H]1C(=O)N[C@@H](CC(N)=O)C(=O)NCC(=O)N1C[C@H](O)C[C@H]1C(N)=O` [compound 157] (H-GCRTGTCTVQRLAHQIYQFTDKDKDNVAPRSKIGPNG[Hyp]-NH2; disulfide 2-7; N-terminus assumed) it was 0.047 nM; in that of `CC[C@H](C)[C@H](NC(=O)[C@H](CCC(N)=O)NC(=O)[C@H](Cc1c[nH]cn1)NC(=O)[C@H](C)NC(=O)[C@H](CC(C)C)NC(=O)[C@H](CCCNC(=N)N)NC(=O)[C@H](CCC(N)=O)NC(=O)[C@@H](NC(=O)[C@@H](NC(=O)[C@@H]1CSSC[C@H](NC(=O)CN)C(=O)N[C@@H](CCCNC(=N)N)C(=O)N[C@@H](Cc2ccccc2)C(=O)NCC(=O)N[C@@H]([C@@H](C)O)C(=O)N1)[C@@H](C)O)C(C)C)C(=O)N[C@@H](Cc1ccc(O)cc1)C(=O)N[C@@H](CCC(N)=O)C(=O)N[C@@H](Cc1ccccc1)C(=O)N[C@H](C(=O)N[C@@H](CC(=O)O)C(=O)N[C@@H](CCCCN)C(=O)N[C@@H](CC(=O)O)C(=O)N[C@@H](CCCCN)C(=O)N[C@@H](CC(=O)O)C(=O)N[C@@H](CC(N)=O)C(=O)N[C@H](C(=O)N[C@@H](C)C(=O)N1CCC[C@H]1C(=O)N[C@@H](CCCNC(=N)N)C(=O)N[C@@H](CO)C(=O)N[C@@H](CCCCN)C(=O)N[C@H](C(=O)N[C@@H](CO)C(=O)N1CCC[C@H]1C(=O)N[C@@H](CCC(N)=O)C(=O)NCC(=O)N1C[C@H](O)C[C@H]1C(N)=O)[C@@H](C)CC)C(C)C)[C@@H](C)O` [compound 169] (H-GCRFGTCTVQRLAHQIYQFTDKDKDNVAPRSKISPQG[Hyp]-NH2; disulfide 2-7; N-terminus assumed), 0.063 nM.

Source of the values: US12139520B2 (priority 2020, dated 2024).
